The record followed here is patent US12612412B2, “Antiviral heterocyclic compounds” (Enanta Pharmaceuticals, Inc., priority 2021, dated 2026).

SMILES strings stand for the structures. pEC50: −log10 of the molar value. Where two headings read alike, the source gives them in different places.

Assay [1] deals with genotype A, "Long" strain RSV. Description: RSV-A assay (CPE protection in Hep-2 cells, ATPlite readout). The class given is cell-based, Human respiratory syncytial virus (HRSV). The following applies: human respiratory syncytial virus, MOI 0.1, CPE protection. The method, boiled down: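 ATPlite luminescence (cellular ATP) served as the measure of cell health after 5 days of infection. Hep-2 cells at 8,000 per well received duplicate 2-fold compound dilutions plus virus at MOI 0.1, and EC50 was calculated from CPE protection.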

For assay [2], the system named is HMPV clinical isolate TN/1501/A1. Description: HMPV antiviral assay Method-B (clinical isolate TN/1501/A1 in LLC-MK2 cells, ATP-Lite readout). The class given is cell-based, Human metapneumovirus (HMPV). As to conditions: human metapneumovirus, LLC-MK2, 144 h, hMPV WT1501 (clinical isolate TN/1501/A1), 6 days. The method, boiled down:
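EC50 derived by four-parameter logistic fit of percent cell health, measured by ATP-Lite luminescence and normalised to virus-only and uninfected-cell controls. Compounds run in duplicate from 10 μM top, 3-fold, 10 points. Infection: LLC-MK2 cells, MOI 0.014, 2 μg/mL final TPCK-trypsin, serum-free, 6 days at 37° C.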

Setting [3] is: genotype A “Long” strain RSV, read-out: Human RSV-A (“Long”).
Setting [4] is: RSV-A Long strain, read-out: Human RSV-A (“Long”) EC50.

As to `COc1cc(C(=O)NC[C@](O)(c2cc3c(c(-c4ccc5c(c4)OC(F)(F)O5)n2)OC[C@]3(C)C(N)=O)C(F)(F)F)ccc1OC1CC1` [Example 817], the results for the pEC50 in assay [1] (setting [3]) and in assay [2] were above 6.70 and above 6.30, respectively.
As to `C[C@@H](O)COc1ccc(C(=O)NC[C@](O)(c2cc3c(c(-c4ccc5c(c4)OC(F)(F)O5)n2)OC[C@]3(C)C(N)=O)C(F)(F)F)cc1OC1CC1` [Example 818], the pEC50 is above 6.70 in assay [1] (setting [3]) and above 6.30 in assay [2].
Turning to `C[C@]1(C(N)=O)COc2c1cc([C@@](O)(CNC(=O)c1ccc3nn(C4CC4)cc3c1)C(F)(F)F)nc2-c1ccc2c(c1)OC(F)(F)O2` [Example 819], the results for the pEC50 in assay [1] (setting [3]) and in assay [2] were above 6.70 and above 6.30, respectively.
As to `COc1cc(C(=O)NC[C@](O)(c2cc3c(c(-c4ccc(F)cc4)n2)OC[C@]3(C)C(N)=O)C(F)(F)F)cc2cn(C3(F)CC3)nc12` [Example 820], the pEC50 in assay [1] (setting [3]) was above 6.70; in assay [2], above 6.30.
For the compound `COc1cc(C(=O)NC[C@](O)(c2cc3c(c(-c4ccc(F)cc4)n2)OC[C@]3(C)C(N)=O)C(F)(F)F)cc2cn(C3(O)CC3)nc12` [Example 821], the pEC50 was above 6.70 in assay [1] (setting [3]) and below 6.30 in assay [2].
On to `C[C@]1(C(N)=O)COc2c1cc([C@@](O)(CNC(=O)c1cc(OC3CC3)n3nc(C4CC4)cc3c1)C1CC1)nc2-c1ccc2c(c1)OC(F)(F)O2` [Example 822], for which the pEC50 in assay [1] (setting [3]) is above 6.70; in assay [2] it was above 6.30.
Taken in the same sequence, the figures for `COc1cc(C(=O)NC[C@](O)(c2cc3c(c(-c4ccc5c(c4)OC(F)(F)O5)n2)OC[C@]3(C)C(N)=O)C2CC2)cc2cn(C(F)F)nc12` [Example 823] were above 6.70 and above 6.30.
Consider `C[C@]1(C(N)=O)COc2c1cc([C@@](O)(CNC(=O)c1ccn3nc(C4CC4)cc3c1)C1CC1)nc2-c1ccc2c(c1)OC(F)(F)O2` [Example 824], for which the pEC50 in assay [1] (setting [3]) was above 6.70; in assay [2], above 6.30.
For `COc1cc(C(=O)NC[C@](O)(c2cc3c(c(-c4ccc5c(c4)OC(F)(F)O5)n2)OC[C@]3(C)C(N)=O)C2CC2)cc2cc(Cl)c(C)nc12` [Example 825], the pEC50 in assay [1] (setting [3]) was above 6.70; in assay [2], above 6.30.
As to `COc1cc(C(=O)NC[C@](O)(c2cc3c(c(-c4ccc5c(c4)OC(F)(F)O5)n2)OC[C@]3(C)C(N)=O)C2CC2)cc2cc(C3CC3)nn12` [Example 826], the pEC50 is above 6.70 in assay [1] (setting [3]) and above 6.30 in assay [2].
Regarding `C[C@]1(C(N)=O)COc2c1cc([C@@](O)(CNC(=O)c1cc(F)c3nc(N)sc3c1)C1CC1)nc2-c1ccc2c(c1)OC(F)(F)O2` [Example 827], the pEC50 was above 6.70 in assay [1] (setting [4]) and above 6.30 in assay [2].
Taken in the same sequence, the figures for `COc1cc(C(=O)NC[C@](O)(c2cc3c(c(-c4ccc5c(c4)OC(F)(F)O5)n2)OC[C@]3(C)C(N)=O)C2CC2)cn2cc(C3CC3)nc12` [Example 828] were above 6.70 and above 6.30.
Regarding `C[C@@H](O)COc1ccc(C(=O)NC[C@](O)(c2cc3c(c(-c4ccc5c(c4)OC(F)(F)O5)n2)OC[C@]3(C)C(N)=O)C2CC2)cc1OC1CC1` [Example 829], the pEC50 in assay [1] (setting [4]) is above 6.70; in assay [2], below 6.30.
Taken in the same sequence, the figures for `COc1cc(C(=O)NC[C@](O)(c2cc3c(c(-c4ccc5c(c4)OC(F)(F)O5)n2)OC[C@]3(C)C(N)=O)C2CC2)ccc1OC1CC1` [Example 830] were above 6.70 and above 6.30.
As for `C[C@]1(C(N)=O)COc2c1cc([C@@](O)(CNC(=O)c1ccc3nn(C4CC4)cc3c1)C1CC1)nc2-c1ccc2c(c1)OC(F)(F)O2` [Example 831], the pEC50 in assay [1] (setting [4]) is above 6.70; in assay [2], above 6.30.
Take `C[C@]1(C(N)=O)COc2c1cc([C@@](O)(CNC(=O)c1ccc3nn(C4(F)CC4)cc3c1)C(F)(F)F)nc2-c1ccc(F)cc1` [Example 832]: the pEC50 was above 6.70 in assay [1] (setting [4]) and below 6.30 in assay [2].
For the compound `C[C@]1(C(N)=O)COc2c1cc([C@@](O)(CNC(=O)c1cc(F)c3nn(C4(F)CC4)cc3c1)C(F)(F)F)nc2-c1ccc(F)cc1` [Example 833], the pEC50 in assay [1] (setting [4]) was above 6.70; in assay [2], below 6.30.
Taken in the same sequence, the figures for `C[C@]1(C(N)=O)COc2c1cc([C@@](O)(CNC(=O)c1cc(Cl)c3nn(C4(F)CC4)cc3c1)C(F)(F)F)nc2-c1ccc(F)cc1` [Example 834] were above 6.70 and above 6.30.
For the compound `COc1cc(C(=O)NC[C@](O)(c2cc3c(c(-c4ccc5c(c4)OC(F)(F)O5)n2)OC[C@]3(C)C(N)=O)C2CC2)cc2cn(C3(F)CC3)nc12` [Example 835], the values for the pEC50 in assay [1] (setting [4]) and in assay [2] were above 6.70 and above 6.30, respectively.
In the case of `COc1cc(C(=O)NC[C@](O)(c2cc3c(c(-c4ccc(F)c(Cl)c4)n2)OC[C@]3(C)C(N)=O)C2CC2)cc2cn(C3(F)CC3)nc12` [Example 836], the values for the pEC50 in assay [1] (setting [4]) and in assay [2] were above 6.70 and above 6.30, respectively.
Taken in the same sequence, the figures for `COc1cc(C(=O)NC[C@](O)(c2cc3c(c(-c4ccc5c(c4)OC(F)(F)O5)n2)OC[C@]3(C)C(N)=O)C(F)(F)F)cc2cn(C3(F)CC3)nc12` [Example 837] were above 6.70 and above 6.30.
As for `COc1cc(C(=O)NC[C@](O)(c2cc3c(c(-c4ccc5c(c4)OC(F)(F)O5)n2)OC[C@]3(C)C(N)=O)C2CC2)cc2cn(C3(Cl)CC3)nc12` [Example 838], the pEC50 was above 6.70 in assay [1] (setting [4]) and above 6.30 in assay [2].
In the case of `COc1cc(C(=O)NC[C@](O)(c2cc3c(c(-c4cc(Cl)ccc4F)n2)OC[C@]3(C)C(N)=O)C2CC2)cc2cn(C3(F)CC3)nc12` [Example 839], the pEC50 in assay [1] (setting [4]) is above 6.70; in assay [2], above 6.30.
In the case of `COc1cc(C(=O)NC[C@](O)(c2cc3c(c(-c4ccc(Cl)cc4F)n2)OC[C@]3(C)C(N)=O)C2CC2)cc2cn(C3(F)CC3)nc12` [Example 840], the pEC50 in assay [1] (setting [4]) was above 6.70; in assay [2], above 6.30.
As for `COc1cc(C(=O)NC[C@](O)(c2cc3c(c(-c4ccc(F)c(Cl)c4)n2)OC[C@]3(C)C(N)=O)C2CC2)cc2cn(C3(Cl)CC3)nc12` [Example 841], the pEC50 in assay [1] (setting [4]) was above 6.70; in assay [2] it was above 6.30.
Taken in the same sequence, the figures for `COc1cc(C(=O)NC[C@](O)(c2cc3c(c(-c4cc(Cl)ccc4F)n2)OC[C@]3(C)C(N)=O)C2CC2)cc2cn(C3(Cl)CC3)nc12` [Example 842] were above 6.70 and above 6.30.
For the compound `COc1cc(C(=O)NC[C@](O)(c2cc3c(c(-c4ccc(Cl)cc4F)n2)OC[C@]3(C)C(N)=O)C2CC2)cc2cn(C3(Cl)CC3)nc12` [Example 843], the pEC50 was above 6.70 in assay [1] (setting [4]) and above 6.30 in assay [2].
`COc1cc(C(=O)NC[C@](O)(c2cc3c(c(-c4ccc(F)cc4Cl)n2)OC[C@]3(C)C(N)=O)C2CC2)cc2cn(C3(Cl)CC3)nc12` [Example 844]: the results for the pEC50 in assay [1] (setting [4]) and in assay [2] were above 6.70 and above 6.30, respectively.
For `COc1cc(C(=O)NC[C@](O)(c2cc3c(c(-c4ccc(F)c(C(F)(F)F)c4)n2)OC[C@]3(C)C(N)=O)C2CC2)cc2cn(C3(Cl)CC3)nc12` [Example 845], the pEC50 in assay [1] (setting [4]) is above 6.70; in assay [2] it was above 6.30.
Taken in the same sequence, the figures for `C[C@]1(C(N)=O)COc2c1cc([C@@](O)(CNC(=O)c1cc(OC3CC3)c3nn(C4(F)CC4)cc3c1)C1CC1)nc2-c1ccc2c(c1)OC(F)(F)O2` [Example 846] were above 6.70 and above 6.30.
Turning to `C[C@]1(C(N)=O)COc2c1cc([C@@](O)(CNC(=O)c1cc(OC3CC3)c3nn(C(F)F)cc3c1)C1CC1)nc2-c1ccc2c(c1)OC(F)(F)O2` [Example 847], the pEC50 is above 6.70 in assay [1] (setting [4]) and above 6.30 in assay [2].
